# Patent EP0596284A2, “Antimycotic cosmetic and dermatological compositions containing fatty acid esters” (Beiersdorf Aktiengesellschaft, priority 1992, dated 1994)
# Read-outs that look alike come from different tables or passages of the source.
# Test system: Pityrosporum ovale
# Experiment: Agar diffusion test, inhibition zones around wells on selective agar plates
# Format: cell-based
# Conditions: for zone of inhibition at 0.5 % / zone of inhibition at 1 % / zone of inhibition at 5 % / zone of inhibition at 10 %: Malassezia furfur, 72 h, read-out: mittlerer Hemmhof-Durchmesser
# Method: Testlösungen: • TY-Medium 10 g Trypton + 5 g Hefeextrakt + 10 g NaCI, aufgelöst in 1000 ml H20, gepuffert auf pH 7,4 , autoklaviert. • Testverbindung 1: Hexyllaurat • Testverbindung 2: Isopropylstearat • Testverbindung 3: Caprylsäure-/Caprinsäure-Triglycerid • Testverbindung 4: Glyceryllaurat
# Pityrosporum ovale von drei Patienten mit Pityrosporum-Follikulitis, Pityriasis versicolor oder seborrhoischem Ekzem wurde in einer Mischung aus 50 % TY-Medium, 30 % Olivenöl und 20 % Tween 80 suspendiert. Die drei verschiedenen Hefestämme wurden in drei parallelen Ansätzen auf einer Selektivagarplatte für pathogene Pilze (Merck AG, Darmstadt) gleichmäßig ausgespatelt. Mit Hilfe steriler Korkbohrer wurden in jede Platte mehrere kreisrunde Vertiefungen gestanzt, in die Vertiefungen mit einem Durchmesser von 5 mm wurden jeweils 25 ul der Testlösungen gegeben. Die Testlösungen stellten 0,5 %-ige, 1,0 %- ige, 2,5 %-ige, 5,0 %-ige und 10,0 %-ige Lösungen der Testsubstanzen in Ethanol dar.
# Nach dreistündiger Inkubation bei 37 C wurde das verdunstete Lösungsmittel durch je 25 ul Jojobaöl ersetzt und die Platten anschließend unter Beibehaltung der Wachstumsbedingungen drei Tage inkubiert. Während dieser Zeit diffundierten die Testsubstanzen in den die Vertiefungen umgebenden Nährboden.
# Antimycotisch wirksame Testverbindungen zeigten nach dreitägiger Inkubation einen deutlichen konzentrischen Hemmhof um die Vertiefungen. Die Größe dieser Hemmhöfe, wiedergegeben in Tabelle 1, ist bei vergleichbarer Substanzkonzentration ein Maß für die antimycotische Wirksamkeit der Testverbindungen.
# [1] = Konz. 0,5 % in Ethanol, 25 ul per 5 mm well, three patient strains, three days at 37 C
# [2] = Konz. 1,0 % in Ethanol, 25 ul per 5 mm well, three patient strains, three days at 37 C
# [3] = Konz. 5,0 % in Ethanol, 25 ul per 5 mm well, three patient strains, three days at 37 C
# [4] = Konz. 10,0 % in Ethanol, 25 ul per 5 mm well, three patient strains, three days at 37 C
Molecule,zone of inhibition at 0.5 % [1],zone of inhibition at 1 % [2],zone of inhibition at 5 % [3],zone of inhibition at 10 % [4],further results
"CCCCCCCCCCCC(=O)OCCCCCC [Testlösung 1, Hexyllaurat]",14 mm,15.5 mm,18 mm,20.7 mm,–
"CCCCCCCCCCCCCCCCCC(=O)OC(C)C [Testlösung 2, Isopropylstearat]",10.7 mm,14 mm,18.7 mm,20.7 mm,–
"CCCCCCCCCCCC(=O)OCC(O)CO (stereo not shown) [Testlösung 4, Glyceryllaurat]",–,–,–,–,zone of inhibition at 0.5 %: 11 mm; zone of inhibition at 1 %: 14 mm; zone of inhibition at 5 %: 16.5 mm; zone of inhibition at 10 %: 16.5 mm
Caprylsäure-/Caprinsäure-Triglycerid [Testlösung 3],–,–,–,–,"mittlerer Hemmhof-Durchmesser [1]: 9,0 mm; mittlerer Hemmhof-Durchmesser [2]: 9,0 mm; mittlerer Hemmhof-Durchmesser [3]: 15,0 mm; mittlerer Hemmhof-Durchmesser [4]: 17,3 mm"
